Results reported in US4002690A (priority 1974, dated 1977).
Counter-ions that a name gives are not always drawn.

Tests used:
[1] = system: Newcastle disease virus (NDV); test: microbe, parasite or virus in culture; type: cell-based, Newcastle disease virus (host: chick embryo); details: for inhibition at 39 µg/mL / inhibition at 78 µg/mL / inhibition at 156 µg/mL: avian paramyxovirus 1, in Gallus gallus, 48 h, read-out: % Inhibition of NDV Multiplications
[2] = Antiviral activity in vivo (statement only); details: no test details given

Row | SMILES | inhibition at 39 µg/mL [1] [%] | inhibition at 78 µg/mL [1] [%] | inhibition at 156 µg/mL [1] [%] | antiviral activity in vivo [2] | antiviral activity compared with Amantadine hydrochloride ([1]; NDV, in vitro, chick embryo monolayer tissue culture) | virus replication in the tissue culture ([1]; containing above 39 μg/ml of carbinol (II))
1 | NC12CC3CC(CC(C3)C1)C2 [Amantadine.HCl, reference compound] | 0 | 0 | 0 | – | – | –
2 | OCC12CCCC3CC(CCC31)C2 (stereo not drawn) [II] | 0 | 91.2 | 99.8 | potent antiviral activity in vivo | extremely superior to that of Amantadine hydrochloride | almost completely inhibited
